Biological target: T1, hTLR7 (Homo sapiens, UniProt Q9NYK1)
T1 sequence (Q9NYK1 27-1049): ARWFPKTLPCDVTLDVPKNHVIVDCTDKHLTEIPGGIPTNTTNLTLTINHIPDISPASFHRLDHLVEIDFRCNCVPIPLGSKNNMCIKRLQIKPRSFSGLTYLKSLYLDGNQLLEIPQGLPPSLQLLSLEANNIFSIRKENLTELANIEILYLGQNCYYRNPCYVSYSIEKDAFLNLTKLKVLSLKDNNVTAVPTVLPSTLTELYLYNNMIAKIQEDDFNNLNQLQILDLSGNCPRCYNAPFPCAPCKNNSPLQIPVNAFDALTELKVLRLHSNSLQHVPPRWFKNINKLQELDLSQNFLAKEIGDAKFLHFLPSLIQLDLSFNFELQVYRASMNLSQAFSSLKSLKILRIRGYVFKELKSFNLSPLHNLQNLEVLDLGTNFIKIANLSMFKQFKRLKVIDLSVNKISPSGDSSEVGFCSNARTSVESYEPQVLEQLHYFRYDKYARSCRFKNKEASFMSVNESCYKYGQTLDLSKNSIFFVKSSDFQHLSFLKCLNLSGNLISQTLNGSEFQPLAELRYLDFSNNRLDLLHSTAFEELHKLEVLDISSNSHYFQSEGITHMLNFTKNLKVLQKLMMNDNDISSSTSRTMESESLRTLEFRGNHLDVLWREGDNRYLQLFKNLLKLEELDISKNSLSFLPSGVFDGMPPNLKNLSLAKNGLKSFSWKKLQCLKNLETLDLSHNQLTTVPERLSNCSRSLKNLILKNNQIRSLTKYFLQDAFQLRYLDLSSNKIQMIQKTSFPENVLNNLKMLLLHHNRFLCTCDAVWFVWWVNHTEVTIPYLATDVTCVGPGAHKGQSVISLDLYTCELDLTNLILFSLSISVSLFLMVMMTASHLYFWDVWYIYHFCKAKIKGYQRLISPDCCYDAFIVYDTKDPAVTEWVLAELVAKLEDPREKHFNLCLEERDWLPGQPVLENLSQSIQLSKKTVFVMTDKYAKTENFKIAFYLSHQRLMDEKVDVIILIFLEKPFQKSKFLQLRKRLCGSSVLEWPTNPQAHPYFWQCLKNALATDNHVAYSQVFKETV
Assay: HEK293-Blue-hTLR-7 cells assay (SEAP reporter, R848 stimulation)
Type: cell-based
Parameters: host or cells: HEK293 (HEK-Blue)
Settings: HEK293-Blue-hTLR7 cells, R848, 20 hrs; read-out: HEK/hTLR7 IC50
Outline: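 HEK293-Blue cells stably expressing human TLR7 with an NF-κB/AP-1-driven SEAP reporter were treated with serially diluted compound (1% DMSO final) plus R848 for 20 h at 37 °C. Supernatant SEAP activity was measured with QUANTI-Blue substrate after 2 h at 37 °C, with absorbance read at 620-655 nm.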

Compared with `C[C@@H]1CN(c2ccc(C#N)c3nccnc23)C[C@H](CN2CCN(c3cc4c(cn3)[C@@H](C)NCC4)CC2)O1` (single isomer, unassigned) [Example 86], `C[C@@H]1CN(c2ccc(C#N)c3nccnc23)C[C@H](CN2CCN(c3cc4c(cn3)CCN[C@@H]4C)CC2)O1` (single isomer, unassigned) [Example 87] is 1.5-fold lower in IC50: 6 nM for the first, 4 nM for the second.

Compared with `C[C@@H]1CN(c2ccc(C#N)c3nccnc23)C[C@H](CN2CCN(c3cc4c(cn3)CCN[C@H]4C)CC2)O1` (single isomer, unassigned) [Example 88], `[2H]c1nc2c(C#N)ccc(N3C[C@H](CN4CCN(c5cc6c(cn5)[C@H](C)NCC6)CC4)O[C@H](C)C3)c2nc1[2H]` (single isomer, unassigned) [Example 94] is 1.5-fold lower in IC50: 6 nM for the first, 4 nM for the second.

`[2H]c1nc2c(C#N)ccc(N3C[C@H](CN4CCN(c5cc6c(cn5)[C@@H](C)NCC6)CC4)O[C@H](C)C3)c2nc1[2H]` (single isomer, unassigned) [Example 95] and `[2H]c1nc2c(C#N)ccc(N3C[C@H](CN4CCN(c5ccc6c(n5)CN[C@H]6C)CC4)O[C@H](C)C3)c2nc1[2H]` (single isomer, unassigned) [Example 96] are within 1.5-fold of each other in IC50: 5 nM for the first, 4 nM for the second.

`[2H]c1nc2c(C#N)ccc(N3C[C@H](CN4CCN(c5ccc6c(n5)CN[C@@H]6C)CC4)O[C@H](C)C3)c2nc1[2H]` (single isomer, unassigned) [Example 97] and `[2H]c1ccc2c(N3C[C@H](CN4CCN(c5ccc6c(n5)CN[C@@H]6C)CC4)O[C@H](C)C3)ccc(C#N)c2n1` (single isomer, unassigned) [Example 98] are within 1.5-fold of each other in IC50: 7 nM for the first, 8 nM for the second.

First: [2H]c1ccc2c(N3C[C@H](CN4CCN(c5ccc6c(n5)CN[C@H]6C)CC4)O[C@H](C)C3)ccc(C#N)c2n1 (single isomer, unassigned) [Example 99]
Second: C[C@@H]1CN(c2ccc(C#N)c3ncccc23)C[C@H](CN2CCN(c3cnc4c(c3)CNC4)CC2)O1 [Example 10, 5-[(2S,6R)-2-[[4-(6,7-dihydro-5H-pyrrolo[3,4-b]pyridin-3-yl)piperazin-1-yl]methyl]-6-methyl-morpholin-4-yl] quinoline-8-carbonitrile]
The IC50 of the first is 3.2-fold lower: 11 nM for the first, 35 nM for the second. The first is the more potent here.

Work on `C[C@@H]1CN(c2ccc(C#N)c3ncccc23)C[C@H](CN2CCN(c3ccc4c(c3)CNCC4)CC2)O1` [Example 9, 5-[(2R,6S)-2-methyl-6-[[4-(1,2,3,4-tetrahydroisoquinolin-7-yl)piperazin-1-yl]methyl]morpholin-4-yl]quinoline-8-carbonitrile] yielded an IC50 of 42 nM.

Source: patent publication EP3807270B1, “NOVEL HETEROARYL HETEROCYCLYL COMPOUNDS FOR THE TREATMENT OF AUTOIMMUNE DISEASE” (F. Hoffmann-La Roche AG, priority 2018, dated 2019)
